In patent EP3565534B1, “POLYMERIC NANOPARTICLES ENCAPSULATING A COMBINATION OF NATURAL BIO-ACTIVES TRANS-RESVERATROL(RSV) AND CELASTROL(CL), A PROCESS FOR THE PREPARATION AND USE THEREOF IN THE TREATMENT OF PROSTATE CANCER” (Università degli Studi di Sassari, priority 2017, dated 2018):
Like-named read-outs stand apart in the source and are kept apart here.

Columns and labels:
[1] = cited from earlier work
[2] = test system: prostate cancer cell lines (C-42, DU-145, and PC-3 cells); assay: MTT assay, antiproliferative efficacy, results stated for all three cell lines together; format: cell-based; conditions: 72 hours; non-encapsulated, alone; RSV 20, 30, 40 µM; CL 0.250, 0.375, 0.5 µM
Description: Finally, in vitro cytotoxicity studies were performed in order to evaluate whether co-administration of encapsulated RSV and CL would have allowed an increase in the antiproliferative efficacy compared to single molecules, both as such and formulated in nanosystems, on androgen-dependent (C-42 cells) and androgen-independent (DU-145 and PC-3 cells) prostate cancer cell lines (PCa).
The antiproliferative efficacy of the NPs of the present invention was evaluated using the MTT assay (3-[4,5-dimethylthiazol-2-yl]-2,5-diphenyl tetrazolium bromide) applying the procedure described in Sanna V., et al., Resveratrol-loaded nanoparticles based on poly(epsilon-caprolactone) and poly(D,L-lactic-co-glycolic acid)-poly(ethylene glycol) blend for prostate cancer treatment. Mol. Pharm. 2013 Oct 7;10(10):3871-81, which, as a result, is included herein as a reference in its entirety.
Each experiment was repeated 3 or 5 times (n = 3 or 5).

SMILES | solubility in water ([1]; result in words) | viability [2] | solubility in water [1] [mg/100 mL]
CC1=C(O)C(=O)C=C2C1=CC=C1[C@@]2(C)CC[C@@]2(C)[C@@H]3C[C@](C)(C(=O)O)CC[C@]3(C)CC[C@]12C [CL, Celastrol] | insoluble |  | 
Oc1ccc(/C=C/c2cc(O)cc(O)c2)cc1 [RSV, trans-3,5,4'-trihydroxy-stilbene] |  | reduction of viability that is generally dose-dependent | 3
